Data as given in patent US20060074109A1, “Use of inhibitors of 24-hydroxylase in the treatment of cancer” (Sapphire Therapeutics, Inc., priority 2004, published 2006).
Like-named read-outs stand apart in the source and are kept apart here.

Assays:
[1] = system: OVCAR-3 ovarian cancer cells; experiment: Cell growth, methylene blue uptake (Experiment VI); assay type: cell-based, human; conditions: calcitriol alone
Experimental: (§1) Culture conditions were the same as for Experiment I. Cell growth was measured using uptake of methylene blue (0.5% in 50% ethanol), followed by air drying and release of the dye in 1% sodium N-lauroyl sarcosine in PBS.

OVCAR-3 cells = experiment: Cell growth assay, crystal violet, 11 days; assay type: cell-based, human; conditions: 11 days; for inhibition at 0.1 µM: 100 nM
Experimental: (§2) The human ovarian adenocarcinoma cell line, OVCAR-3 (ATCC, Manassas, Va.) was maintained, as recommended by the supplier, in RPMI 1640 medium (Sigma Aldrich, St. Louis, Mo.) supplemented with 10% FBS, 10 μg/ml insulin, 0.25% glucose and antibiotics (100 IU/ml penicillin, 100 μg/ml streptomycin). Human ovarian adenocarcinoma cell lines UT-OC-1, UT-OC-2, UT-OC-3, UT-OC-4, UT-OC-5 (Grenman, S., Engblom, P., Rantanen, V., Klemi, P. and Isola, J., “Cytogenetic Characterization of Five New Ovarian Carcinoma Cell Lines,” Acta Obstet. Gynecol. Scand., 76:83 (1997)) and SK-OV-3 and a human keratinocyte cell line HaCaT were grown in DMEM (Sigma Aldrich) with 10% FBS and antibiotics (100 IU/ml penicillin, 100 μg/ml streptomycin), and monkey kidney COS cells were maintained in DMEM/F12 (Sigma Aldrich) with 5% FBS. All cell lines were kept at 37° C. in a humidified 95% air/5% CO2 incubator.
(§3) When OVCAR-3 cells were on the logarithmic growth phase (70% confluent) the growth assay was started. For cell growth assay, 2,000 cell/200 μl/well were plated on 96-well culture plates. […] Ethanol was used as a vehicle, and it was also included in the control. The medium containing ethanol vehicle and/or hormones were changed to a fresh one every third day. Cell growth samples were taken 0, 1, 3, 5, 7, 9 and 11 days after the treatment.
(§4) Relative cell numbers were quantified as described previously (Kueng W, Silber E, Eppenberger U. Quantification of cells cultured on 96-well plates. Anal. Biochem., 182:16-9 (1989)). Cells were fixed on the bottom of the wells by addition of 10 μl of 11% glutaraldehyde solution in 0.1% phosphate buffer to 100 μl of medium. The plate was shaken 500 cycles/min for 15 min, washed 3 times by submersion in de-ionised water and air-dried. Fixed cells were stained with 0.1% solution of crystal violet dissolved in de-ionised water. After 20 min incubation, excess dye was removed by carefully washing with de-ionised water. The plate was air-dried prior to a bound dye solubilisation in 100 μl of 10% acetic acid. Relative cell number was given as absorbance units by measuring the optical density (590 nm) from each well using Victor 1420 multilabel counter (Wallac, Turku, Finland). Six determinations were used to calculate the mean optical density ±SD in each concentration at each time point. The absorbance value of day 0 (an overnight culture of 2,000 cells/well) was set as 0 by subtracting it from each value obtained from adjacent time-point measurements (days 1-11), and based on these values growth curves were created. Experiments were repeated 3-5 times. Day 11 was used to compare the effect of hormone treatments and 24OHase inhibitor. Statistical analyses were done using Student's t-test.
The cell growth response was determined as described in Experiment I. Briefly, cells were treated with indicated hormone concentrations or combinations of hormone and 24OHase inhibitor (VID400) for 11 days. The growth medium and hormones were changed to a fresh one every third day. After the treatment period, cells were fixed, stained with crystal violet, and the optical density (590 nm) was determined. The cell growth is presented as a percentage of ethanol-treated cells. The values represent the mean of 3 separate experiments ±SD. (*p<0.05, **p<0.001, ***p<0.0001, Student's t-test).
(§5) Cell growth samples were obtained after 11 days treatment.

[2] = system: RARα mRNA in SK-OV-3 cells; experiment: RPA and quantitative RT-PCR of receptor mRNA; assay type: cell-based, human; conditions: 24 hour
From the text: (§6) Briefly, ^32P-labelled ([α-^32P]UTP, Amersham Biosciences, Buckinghamshire, UK) RNA-probes were synthesised using in vitro transcription reaction (In vitro transcription reaction kit, Pharmingen, San Diego, Calif.) using two different template sets.
(§7) RPLP0 was used as reference gene.

[3] = system: RARγ mRNA in UT-OC-1 cells; experiment: RPA and quantitative RT-PCR of receptor mRNA; assay type: cell-based, human; conditions: 24 hour
From the text: as §6, §7

[4] = system: RARγ mRNA in SK-OV-3 cells; experiment: RPA and quantitative RT-PCR of receptor mRNA; assay type: cell-based, human; conditions: 24 hour
From the text: as §6, §7

[5] = system: 24OHase mRNA in OVCAR-3 cells; experiment: Quantitative RT-PCR of 24OHase mRNA; assay type: cell-based, human; conditions: 100 nM
Experimental: Ethanol was used as a vehicle, and it was also added to the control cells. For RNA extraction, the cells were collected 4, 6 and 24 hr after the treatment with vitamin D compound or vehicle. RNA extractions were done with TRIZOL reagent (GIBCO Invitrogen Corporation, Paisley, UK). The integrity of RNA samples was confirmed on gel electrophoresis. […] The reactions for 24-hydroxylase were performed in the LightCycler instrument (Roche Diagnostics, Basel, Switzerland) from 300 ng total RNA. PBGD (human porphobilinogendeaminase) mRNA was used as an […] control. […] Nucleotides, Tth DNA polymerase (DNA polymerase and reverse transcriptase activity), SYBR Green I and reaction buffer were included in the LightCycler-RNA Master SYBR Green I kit (Roche Diagnostics). […] Cell. […] Detection of fluorescent product was performed at the end of the extension step of each cycle. To verify the specific products, melting curve analysis and gel electrophoresis were done. The data were quantified by the Fit Points method with LightCycler Data Analysis software. […] Hormone treatments and RT-PCR were done twice.

UT-OC-4 cells = experiment: Cell growth assay, crystal violet, 11 days; assay type: cell-based, human; conditions: 11 days
Experimental: as §2, §3, §4, §5

UT-OC-1 cells = experiment: Cell growth assay, crystal violet, 11 days; assay type: cell-based, human; conditions: 11 days
Experimental: as §2, §3, §4, §5

[6] = system: PC3 prostate cancer cells; experiment: Cell growth, methylene blue uptake (Experiment VI); assay type: cell-based; conditions: calcitriol alone, compared with OVCAR-3
Experimental: as §1

[7] = system: CWR22Rv-1 prostate cancer cells; experiment: Cell growth, methylene blue uptake (Experiment VI); assay type: cell-based; conditions: calcitriol alone, compared with OVCAR-3
Experimental: as §1

[8] = system: DU145 prostate cancer cells; experiment: Cell growth, methylene blue uptake (Experiment VI); assay type: cell-based; conditions: calcitriol alone, compared with OVCAR-3
Experimental: as §1

[9] = system: RARβ mRNA in OVCAR-3 cells; experiment: RPA and quantitative RT-PCR of receptor mRNA; assay type: cell-based, human; conditions: 10 μM, 24 hour
From the text: as §6, §7

[10] = system: RARβ mRNA in SK-OV-3 cells; experiment: RPA and quantitative RT-PCR of receptor mRNA; assay type: cell-based, human; conditions: 10 μM, 24 hour
From the text: as §6, §7

[11] = system: VDR mRNA in UT-OC-1 cells; experiment: RPA and quantitative RT-PCR of receptor mRNA; assay type: cell-based, human; conditions: 24 hour
From the text: as §6, §7

[12] = system: AIB1 mRNA in OVCAR-3 cells; experiment: RPA of nuclear receptor coregulator mRNA; assay type: cell-based, human; conditions: 10 μM, 24 hour
From the text: Briefly, ^32P-labelled ([α-^32P]UTP, Amersham Biosciences, Buckinghamshire, UK) RNA-probes were synthesised using in vitro transcription reaction (In vitro transcription reaction kit, Pharmingen, San Diego, Calif.) using two different template sets. […] A coregulator set produces probes for NCoR (360 bp), SMRT (310 bp), pCAF (267 bp), CBP (234 bp), TIF2 (200 bp), AIB1 (179 bp), SRC-1a (145 bp) and −1e (160 bp) and p300 (127 bp); 18S (80 bp) was used as loading control with each probe set.

SK-OV-3 cells = experiment: Cell growth assay, crystal violet, 11 days; assay type: cell-based, human; conditions: alone (1 or 10 μM)
Experimental: as §2, §3, §4, §5

[13] = system: 24OHase mRNA in UT-OC-5 cells; experiment: RPA and RT-PCR of 24OHase induction; assay type: cell-based, human; conditions: 24 h
From the text: as §6, §7

[14] = system: 24OHase mRNA in ovarian cancer cell lines; experiment: RPA and RT-PCR of 24OHase induction, all cell lines; assay type: cell-based, human; conditions: 100 nM, 24 h, every cell line
From the text: as §6, §7

24-hydroxylase = target: T1, 24-hydroxylase (Homo sapiens, UniProt Q07973); conditions: Kahraman et al., J. Med. Chem. 47:6854-6863 (2004); cited from earlier work
T1 sequence (Q07973 36-514): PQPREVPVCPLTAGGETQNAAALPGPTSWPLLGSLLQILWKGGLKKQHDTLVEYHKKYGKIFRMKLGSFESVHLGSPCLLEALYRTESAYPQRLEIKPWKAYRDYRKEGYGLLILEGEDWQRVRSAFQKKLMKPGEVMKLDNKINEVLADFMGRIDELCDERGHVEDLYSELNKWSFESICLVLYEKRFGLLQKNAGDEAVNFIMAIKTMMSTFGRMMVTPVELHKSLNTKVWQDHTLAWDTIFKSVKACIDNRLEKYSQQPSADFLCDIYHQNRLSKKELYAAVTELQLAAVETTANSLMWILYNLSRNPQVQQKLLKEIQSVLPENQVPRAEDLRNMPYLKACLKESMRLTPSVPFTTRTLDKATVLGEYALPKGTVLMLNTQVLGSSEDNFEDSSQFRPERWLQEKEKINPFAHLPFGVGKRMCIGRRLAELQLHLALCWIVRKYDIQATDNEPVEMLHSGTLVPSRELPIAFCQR

[15] = Homo sapiens, OVCAR-3, 264 h, read-out: inhibited growth compared to the control

Compound | inhibition at 0.1 µM (OVCAR-3 cells; [15]) [%] | RARα expression ([2]; 100 nM) | up regulation of RARγ compared to control ([3]; 100 nM) [%] | increase of RARγ compared to control ([4]; 100 nM) [%] | induction of 24OHase mRNA expression ([5]; 6 hr treatment) [fold] | induction of 24OHase mRNA expression ([5]; 24 hr treatment) | effect on cell growth (UT-OC-4 cells; 100 nM alone) | effect on cell growth (UT-OC-1 cells; 100 nM alone) | RARα expression ([2]; 10 μM) | RARβ expression [9] | up regulation of RARγ compared to control ([3]; 10 μM) [%] | RARβ expression [10] | VDR expression ([11]; 10 μM) | increase of RARγ compared to control ([4]; 10 μM) [%] | AIB1 expression [12] | effect on cell growth (SK-OV-3 cells) | effect on cell growth (UT-OC-4 cells; 10 μM alone) | effect on cell growth (UT-OC-1 cells; 10 μM alone) | inhibitory potency for 24-hydroxylase (24-hydroxylase) | also measured
C=C1/C(=C\C=C2/CCC[C@]3(C)[C@@H]([C@H](C)CCCC(C)(C)O)CC[C@@H]23)C[C@@H](O)C[C@@H]1O [1,25(OH)2D3, calcitriol] | 74 | 186±8 % of control | 91±81 | 78±12 | 650 | 1,100 fold | did not restrain cell growth | did not inhibit the cell growth |  |  |  |  |  |  |  |  |  |  |  | effect on cell growth [1]: inhibited cell growth in a concentration-dependent manner; stimulated growth compared to the control (OVCAR-3 cells; 0.1 nM): 14%; effect on the cell growth (OVCAR-3 cells; 1 nM alone, Experiment IV): did not have an effect on the cell growth; effect on the cell growth (OVCAR-3 cells; 1 nM, Experiment I): did not have an effect on the cell growth; inhibition at 0.01 µM (OVCAR-3 cells; Homo sapiens, OVCAR-3, 264 h, 10 nM alone, Experiment IV, read-out: growth inhibition compared to the control): 26%; inhibition at 0.01 µM (OVCAR-3 cells; Homo sapiens, OVCAR-3, 264 h, 10 nM, Experiment I, read-out: inhibited growth compared to the control): 8%; effect on cell growth [6]: less pronounced; effect on cell growth [7]: less pronounced; effect on cell growth [8]: less pronounced
CC1=C(/C=C/C(C)=C\C=C\C(C)=C\C(=O)O)C(C)(C)CCC1 [9-CRA, 9-cis retinoic acid] |  |  |  |  |  |  |  |  | 195±1 % of control | 276±68 % of control | 44±15 | 345±17 % of control | 58±25 % of control | 119±52 | 171 (±5) % of ethanol-treated control | inhibited the growth of SK-OV-3 cells | inhibited UT-OC-4 cell growth | inhibited cell growth with equal magnitude |  | 
CC1=C(/C=C/C(C)=C/C=C/C(C)=C/C(=O)O)C(C)(C)CCC1 [ATRA, all-trans-retinoic acid] |  |  |  |  |  |  |  |  | 293±70 % of control | 214±127 % of control | 83±66 | 657±30 % of control | 53±11 % of control | 119±19 | 160 (±10) % of ethanol-treated control | inhibited the growth of SK-OV-3 cells | inhibited UT-OC-4 cell growth | inhibited cell growth with equal magnitude |  | 
C=C1/C(=C\C=C2/CCC[C@]3(C)[C@@H]([C@H](C)/C=C/C=C/C(O)(CC)CC)CC[C@@H]23)C[C@@H](O)C[C@@H]1O [EB 1089] | 84 | 134±10 % of control | 47±7 | 51±7 | 600 | 1,000 fold | did not restrain cell growth | did not inhibit the cell growth |  |  |  |  |  |  |  |  |  |  |  | inhibition at 0.001 µM (OVCAR-3 cells; Homo sapiens, OVCAR-3, 264 h, 1 nM, read-out: inhibited growth compared to the control): 73%; effect on cell proliferation (OVCAR-3 cells; alone (10 or 100 nM), Experiment V): markedly inhibited the proliferation; VDR expression ([11]; 100 nM): 47±8 % of control; 24OHase induction relative to 100 nM 1,25(OH)2D3 [13]: more than two-fold stronger inducer; induction of 24OHase expression compared with 1,25(OH)2D3 [14]: more effective in inducing 24OHase expression
C=C1/C(=C\C=C2/CCCC3(C)C2CC[C@@H]3[C@H](C)CCS(=N)(=O)c2ccc(F)cc2)C[C@@H](O)C[C@@H]1O (stereo partly shown) [Formula VI] |  |  |  |  |  |  |  |  |  |  |  |  |  |  |  |  |  |  | Only slightly less potent | 
C=C1/C(=C\C=C2/CCCC3(C)C2CC[C@@H]3[C@H](C)CCS(=N)(=O)c2ccccc2)C[C@@H](O)C[C@@H]1O (stereo partly shown) [Formula V] |  |  |  |  |  |  |  |  |  |  |  |  |  |  |  |  |  |  | most potent compound | 
